# Assay results reported in PubChem BioAssay (NCI).
#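 All cell lines were grown in 96-well plates and treated with compound for 48 hours. Here, GI50 denotes the concentration required for 50% inhibition of growth. Definition used: TGI = concentration required for complete inhibition of growth.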
# Tests used:
# Test in all cases: NCI anticancer screen, dose series, 48 h
# OVCAR-4 ovarian = test system: OVCAR-4 ovarian
# SF-539 CNS = test system: SF-539 CNS
# SK-MEL-2 melanoma = test system: SK-MEL-2 melanoma
# SK-MEL-28 melanoma = test system: SK-MEL-28 melanoma
# SW-620 colon = test system: SW-620 colon
# U251 CNS = test system: U251 CNS
# UACC-257 melanoma = test system: UACC-257 melanoma
# HT29 colon = test system: HT29 colon
# SK-OV-3 ovarian = test system: SK-OV-3 ovarian
# DU-145 prostate = test system: DU-145 prostate
Compound,TGI (OVCAR-4 ovarian) [µM],TGI (SF-539 CNS) [µM],TGI (SK-MEL-2 melanoma) [µM],TGI (SK-MEL-28 melanoma) [µM],TGI (SW-620 colon) [µM],TGI (U251 CNS) [µM],TGI (UACC-257 melanoma) [µM],TGI (HT29 colon) [µM],TGI (SK-OV-3 ovarian) [µM],GI50 (HT29 colon) [µM],GI50 (SF-539 CNS) [µM],GI50 (SK-MEL-2 melanoma) [µM],GI50 (SK-OV-3 ovarian) [µM],GI50 (SW-620 colon) [µM],GI50 (U251 CNS) [µM],GI50 (UACC-257 melanoma) [µM],TGI (DU-145 prostate) [µM]
N#CC1C(C#N)C2(c3ccccc3)C(c3ccccc3)=NN(c3ccccc3)CC12 (centres undefined),> 100,> 100,> 100,> 100,> 100,> 100,> 100,,,,,,,,,,
O=C(COc1ccc(Br)cc1Br)N1N=C(c2ccc([N+](=O)[O-])o2)CC1(O)c1ccccc1 (centres undefined),> 100,,31.3,28,33.3,22.9,45.4,48,> 100,,,,,,,,
CCOC(=O)CN1C(=O)c2cccc3cc([N+](=O)[O-])cc(c23)C1=O,3.27,16,2.87,7.39,2.99,20.3,7.73,25.4,41,,,,,,,,
N#CCCN(CCC#N)c1ccc(/C=C2\N=C(c3cc([N+](=O)[O-])ccc3Cl)OC2=O)cc1,78.6,> 100,38.1,> 100,> 100,32.1,44.1,> 100,> 100,,,,,,,,
CC(C)C/C(CC(=O)CCC(=O)Nc1ccccc1[N+](=O)[O-])=N\NC(=O)c1cc2ccccc2cc1O,,82.3,,> 100,> 100,> 100,> 100,> 100,> 100,,,,,,,,
N#CC(c1ccc(Cl)cc1)c1cccc(C(C#N)c2ccc(Cl)cc2)n1 (centres undefined),> 100,,83.2,> 100,> 100,> 100,> 100,> 100,> 100,,,,,,,,
CCOc1ccc(NC(=O)C(=O)CC(=O)c2c[n+](=O)c3cc(C)c(C)cc3n2[O-])cc1,> 100,> 100,> 100,> 100,> 100,> 100,> 100,> 100,> 100,,,,,,,,
Cc1cc(C)nc(NS(=O)(=O)c2ccc(NC(=O)c3ccc(Cl)c4c(Nc5ccc(S(=O)(=O)Nc6nc(C)cc(C)n6)cc5)c5ccccc5nc34)cc2)n1,48.1,,> 100,> 100,> 100,21.9,81.6,> 100,76.5,,,,,,,,
O=C1C2C(C(=O)N1OS(=O)(=O)c1ccccc1)N(Cc1ccccc1)C(=O)N2Cc1ccccc1 (centres undefined),> 100,> 100,,> 100,> 100,> 100,> 100,> 100,> 100,,,,,,,,
CN1C(=O)C(C)(C)C2(SC(C)(C)C2(C)C)N(C)C1=S (centres undefined),> 100,> 100,> 100,> 100,> 100,> 100,> 100,> 100,> 100,,,,,,,,
CCCCCCCCCCCCCCCCCC(CCCCCCCCCCCCCCCCC)OP(=O)(O)O,> 100,,> 100,> 100,> 100,> 100,> 100,> 100,> 100,,,,,,,,
COc1ccccc1C12OC(=O)C1(C)Oc1ccccc1C2=O (centres undefined),> 100,> 100,> 100,> 100,> 100,> 100,> 100,> 100,> 100,,,,,,,,
O=C(N/C(=C\c1ccc(/C=C(\NC(=O)c2ccccc2)c2nc3cc([N+](=O)[O-])ccc3[nH]2)cc1)c1nc2cc([N+](=O)[O-])ccc2[nH]1)c1ccccc1,> 100,> 100,83.3,69.8,> 100,> 100,> 100,> 100,> 100,,,,,,,,
COC1(OC)CCC2C1C1CCC(OC)(OC)C21 (centres undefined),> 50,> 50,> 50,> 50,> 50,> 50,> 50,> 50,> 50,,,,,,,,
COc1cc(Cc2cnc(/N=C3\C(=O)N(CN4CCN(c5c(F)cc6c(=O)c(C(=O)O)cn(C7CC7)c6c5OC)CC4C)c4ccc(F)cc43)nc2N)cc(OC)c1OC (centres undefined),,47.5,> 100,,23.3,21,44.1,> 100,43.1,14.9,19.9,37.8,15,5.28,8.79,22.3,
COC1CCC2C(NS(=O)(=O)c3ccc(C)cc3)CCCC2O1 (centres undefined) (tested in a mixture with another compound),> 34.5,> 34.5,> 34.5,> 34.5,> 34.5,> 34.5,> 34.5,> 34.5,> 34.5,,,,,,,,
O=C1C(=O)N(c2ccc(Cl)cc2Cl)C(=O)C(=O)C1c1nc2ccccc2s1,> 100,> 100,> 100,> 100,> 100,> 100,> 100,> 100,> 100,,,,,,,,
Clc1cc2nsnc2c(Cl)n1,31.3,46.1,34,44.4,27.8,40.1,72.3,49.3,> 100,,,,,,,,
O=C(O)CSc1ccc([N+](=O)[O-])cc1[N+](=O)[O-],> 100,,> 100,> 100,> 100,> 100,> 100,> 100,> 100,,,,,,,,> 100
CC1=C(C(=O)NCc2ccccc2)C(/C=C/c2ccccc2)C(C(=O)NCc2ccccc2)=C(C)N1,> 100,> 100,> 100,> 100,> 100,,> 100,> 100,,,,,,,,,
O=C(O)CCc1coc2ccc(O)cc12,> 100,> 100,,> 100,> 100,> 100,> 100,> 100,> 100,,,,,,,,
CC(=O)NNc1nc(C)c(C(=O)NNC(=O)C(=O)Nc2c(Cl)cc([N+](=O)[O-])cc2Cl)s1,63.2,66.8,> 100,69.8,78.5,> 100,68.7,> 100,> 100,,,,,,,,
Cc1nc2ccccc2c(=O)n1-c1ccccc1I,> 100,,> 100,> 100,> 100,> 100,> 100,> 100,> 100,,,,,,,,
